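Following 48 hours of exposure in 96-well plates, responses at five concentrations were used to interpolate endpoints linearly. GI50 is the concentration that inhibits growth by half.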 Active and inactive are the calls of the source. No stated cut-off is given here; in the data, active = GI50 up to about 1.1 µM and inactive = higher.
Columns and labels:
Assay in all cases: DTP human tumour cell line panel, 48 h
A498 = system: A498
ACHN = system: ACHN
EKVX = system: EKVX
HOP-92 = system: HOP-92
Hs-578T = system: Hs-578T
KM12 = system: KM12
NCI-H522 = system: NCI-H522
OVCAR-3 = system: OVCAR-3
OVCAR-5 = system: OVCAR-5
PC-3 = system: PC-3
RPMI-8226 = system: RPMI-8226
SF-268 = system: SF-268
SK-MEL-5 = system: SK-MEL-5
T47D = system: T47D
UACC-62 = system: UACC-62
UO-31 = system: UO-31
HOP-62 = system: HOP-62
RXF 393 = system: RXF 393
SR = system: SR

Measured: GI50

CCOC(=O)C1=CNC2=N[C@H]3CCCC[C@@H]3N2C1=O
inactive: A498 > 100 µM | ACHN > 100 µM | EKVX > 100 µM | HOP-92 > 100 µM | Hs-578T > 100 µM | KM12 > 100 µM | NCI-H522 > 100 µM | OVCAR-3 > 100 µM | OVCAR-5 > 100 µM | PC-3 > 100 µM | RPMI-8226 > 100 µM | SF-268 > 100 µM | SK-MEL-5 > 100 µM | T47D > 100 µM | UACC-62 > 100 µM | UO-31 > 100 µM

CCN(CC)CCNc1nc(N)c(C#N)c(C#N)c1C#N
inactive: A498 > 10 µM | ACHN > 10 µM | EKVX > 10 µM | HOP-62 > 10 µM | HOP-92 > 10 µM | Hs-578T > 10 µM | KM12 > 10 µM | NCI-H522 > 10 µM | OVCAR-3 > 10 µM | OVCAR-5 > 10 µM | PC-3 > 10 µM | RPMI-8226 > 10 µM | RXF 393 > 10 µM | SF-268 > 10 µM | SK-MEL-5 > 10 µM | T47D > 10 µM | UACC-62 > 10 µM | UO-31 > 10 µM

O=C1OC(C2Cc3ccc4c(c3C2=O)CCCC4)c2ccccc21 (stereo unspecified)
inactive: A498 16.8 µM | ACHN 44.6 µM | EKVX 44.6 µM | HOP-62 74.1 µM | Hs-578T 18 µM | KM12 44 µM | NCI-H522 48.4 µM | OVCAR-3 34.3 µM | OVCAR-5 > 100 µM | PC-3 26.4 µM | RPMI-8226 42.5 µM | SF-268 49.2 µM | SK-MEL-5 33.4 µM | SR > 10 µM | T47D 63 µM | UACC-62 23.7 µM | UO-31 50 µM

COC(=O)Nc1nc2cc(NC(=O)c3ccc(I)cc3)ccc2[nH]1
inactive: A498 > 100 µM | ACHN > 100 µM | EKVX > 100 µM | HOP-62 > 100 µM | HOP-92 > 100 µM | Hs-578T 84.1 µM | KM12 > 100 µM | NCI-H522 24.7 µM | OVCAR-3 > 100 µM | OVCAR-5 > 100 µM | PC-3 > 100 µM | RPMI-8226 > 100 µM | RXF 393 > 100 µM | SF-268 > 100 µM | SK-MEL-5 > 100 µM | T47D > 100 µM | UACC-62 > 100 µM | UO-31 > 100 µM

O=C(CSCC(=O)N/N=C\c1ccc(F)cc1F)N/N=C\c1ccc(F)cc1F
inactive: A498 > 100 µM | ACHN > 100 µM | EKVX > 100 µM | HOP-62 > 100 µM | HOP-92 > 100 µM | Hs-578T > 100 µM | KM12 > 100 µM | NCI-H522 > 100 µM | OVCAR-3 > 100 µM | RPMI-8226 > 100 µM | RXF 393 > 100 µM | SF-268 > 100 µM | SK-MEL-5 > 100 µM | SR > 100 µM | T47D > 100 µM | UACC-62 > 100 µM | UO-31 > 100 µM

COC(=O)c1cnn2c1ccc1ccccc12
inactive: A498 > 100 µM | ACHN > 100 µM | EKVX 55.3 µM | HOP-62 > 100 µM | HOP-92 > 100 µM | Hs-578T > 100 µM | KM12 61.5 µM | NCI-H522 > 100 µM | OVCAR-3 > 100 µM | OVCAR-5 > 100 µM | PC-3 > 100 µM | RPMI-8226 > 100 µM | RXF 393 > 100 µM | SF-268 > 100 µM | SK-MEL-5 > 100 µM | T47D > 100 µM | UACC-62 > 100 µM | UO-31 47.8 µM

CCN(CC)CCOCC1CCCN2CCCCC12 (stereo unspecified)
inactive: ACHN > 100 µM | EKVX > 100 µM | HOP-62 > 100 µM | HOP-92 > 100 µM | Hs-578T > 100 µM | KM12 > 100 µM | OVCAR-3 > 100 µM | OVCAR-5 > 100 µM | PC-3 > 100 µM | RPMI-8226 > 100 µM | RXF 393 > 100 µM | SF-268 > 100 µM | SK-MEL-5 > 100 µM | T47D > 100 µM | UACC-62 > 100 µM | UO-31 > 100 µM

O=C(C1OC1c1cccc([N+](=O)[O-])c1)C12CC3CC(CC(C3)C1)C2 (stereo unspecified)
inactive: A498 5.13 µM | ACHN 9.59 µM | EKVX 13.2 µM | HOP-62 10.7 µM | HOP-92 10.9 µM | Hs-578T 3.66 µM | KM12 3.78 µM | NCI-H522 3.81 µM | OVCAR-3 3.81 µM | OVCAR-5 7.21 µM | PC-3 5.5 µM | RPMI-8226 2.13 µM | RXF 393 5.33 µM | SF-268 2.63 µM | SK-MEL-5 10.5 µM | T47D 11.7 µM | UACC-62 3.74 µM | UO-31 8.26 µM

COc1ccccc1C(=O)OCC1CCCN2CCCCC12 (stereo unspecified)
inactive: A498 > 100 µM | ACHN > 100 µM | EKVX 81.7 µM | HOP-92 > 100 µM | Hs-578T 59.7 µM | KM12 18.2 µM | PC-3 85.5 µM | RPMI-8226 42.2 µM | RXF 393 22.2 µM | SF-268 36.5 µM | SK-MEL-5 34.4 µM | T47D 16.1 µM | UACC-62 31.7 µM | UO-31 > 100 µM

CC1=[N+]([O-])C2(CCCC2)N(O)C1(C)C
inactive: ACHN > 100 µM | EKVX > 100 µM | HOP-62 > 100 µM | HOP-92 > 100 µM | Hs-578T > 100 µM | KM12 > 100 µM | OVCAR-3 > 100 µM | OVCAR-5 > 100 µM | PC-3 > 100 µM | RPMI-8226 > 100 µM | RXF 393 > 100 µM | SF-268 > 100 µM | SK-MEL-5 > 100 µM | T47D > 100 µM | UACC-62 > 100 µM | UO-31 > 100 µM

COC(=O)[C@H](COC(=O)/C=C/c1ccc(OC(C)=O)c(OC(C)=O)c1)NC(=O)/C=C/c1ccc(OC(C)=O)c(OC(C)=O)c1
inactive: A498 39.3 µM | ACHN 18 µM | EKVX 15.5 µM | HOP-62 17.2 µM | HOP-92 22.2 µM | Hs-578T 21.7 µM | KM12 16.2 µM | OVCAR-3 16.4 µM | OVCAR-5 23.4 µM | PC-3 15 µM | RPMI-8226 > 100 µM | RXF 393 28.5 µM | SK-MEL-5 16.4 µM | T47D 2.81 µM | UACC-62 15 µM

COc1cc(/C=C2\CC3C4CC[C@H]5C[C@@H](O)CC[C@]5(C)C4CC[C@]3(C)\C2=N\O)cc(OC)c1OC (stereo partly specified)
inactive: A498 11.2 µM | ACHN 6.59 µM | EKVX 8.81 µM | HOP-62 12 µM | HOP-92 15.2 µM | Hs-578T 8.3 µM | KM12 6.9 µM | NCI-H522 13.1 µM | OVCAR-3 3.27 µM | OVCAR-5 22.1 µM | PC-3 5.43 µM | RPMI-8226 4.23 µM | RXF 393 7.74 µM | SF-268 24 µM | SK-MEL-5 5.21 µM | T47D 4.73 µM | UACC-62 14.3 µM | UO-31 3.44 µM

Reference: ChEMBL document CHEMBL1201862, “PubChem BioAssay data set” (2004)
